Residues, ends and D or L forms follow the SMILES beside them. *: point of attachment. X1 = C=Cc1c(C)c2cc3nc(c(C)c4nc(cc5[nH]c(cc1[nH]2)c(C)c5CC)C(C)=C4C(=O)O)[C@@H](CCC(=O)*)[C@@H]3C
Tests used:
[1] = system: PCA-SMC cells; assay: Photodynamic therapy efficacy, CCK-8 assay after 670 nm laser; format: cell-based, human; conditions: 10 μM, 4 h treatment, washed
Method: In order to evaluate the efficacy of photodynamic therapy, PCA-SMC cells were put in a 1×10^3/well and MDA-MB-231 cells and MDA-MB-468 cells were put as much as 1×10^4/well in a 96-well plate, respectively, and were cultured for 24 hours to allow the cells to be adhered well. L-EGFR conjugates were prepared at concentrations of 0.1 μM, 0.5 μM, 1 μM, 2 μM, 5 μM and 10 μM, respectively, treated with cells, and then cultured for 4 hours. Thereafter, the conjugate that had not been absorbed into cells was washed and removed, and then irradiated with a 670 nm laser at an irradiation dose density of 50 mW/cm^2 for 6 minutes and 40 seconds. Thereafter, after further culturing in an incubator until the next day, the cytotoxicity was assessed by CCK-8 assay.

[2] = system: HCC70 cells; assay: Real-time observation of fluorescence quenching and recovery without washing (live cell imaging); format: cell-based, human; conditions: no washing, images over 4 hours
Method: An experiment was conducted to verify whether a C-EGFR conjugate of the present invention in which fluorescence signal generation has been quenched from outside the target cell strongly generates fluorescence after the absorption of the C-EGFR conjugate into target cells. EGFR-overexpressing HCC70 cells were treated with the C-EGFR conjugate and free photosensitizer (Ce4), and then fluorescence images were obtained at regular time intervals without washing. The detailed method is provided as follows.
The existing medium was then replaced with 0.5 ml of fresh medium including the conjugate and the free photosensitizer. Thereafter, each of the near infrared light fluorescence images (λEx. 640±15 nm, λEm. 690±25 nm) were obtained at intervals of 15 minutes for 4 hours using the Live Cell Imaging System (Axio Observer Z1, Carl Zeiss, Germany) without washing the cells.

[3] = system: HCC70 cells; assay: Cell absorption and fluorescence activity, confocal laser microscope; format: cell-based, human; conditions: 2 μM, 4 hours
Text: In the 8-well Lab-Tek chamber, 5×10^3 PCA-SMC cells and 5×10^4 HCC70 cells were put in each well.

[4] = Singlet oxygen generation (SOSG) under 670 nm laser after DTT treatment; conditions: for Increase of singlet oxygen generation: 5 mM DTT, 4 hours, 670 nm laser 50 mW/cm^2; for Generation of singlet oxygen in the quenched state: DTT not treated or 2 μM DTT
Method: Singlet oxygen generation (SOG) was measured by the following method. The C-EGFR conjugate thus obtained was dissolved in PBS to be 2 μM, and then DTT-treated samples were mixed with 2 μM and 5 mM DTT, respectively, and the same amount of PBS was mixed in the buffer-treated group. The mixed solution (200 μl) was cultured at 37° C. for 4 hours. Subsequently, oxygen-saturated PBS including concentrated singlet oxygen sensor green (SOSG) was mixed and the final SOSG concentration was adjusted to 5 μM. Fluorescence intensity change of the SOSG was periodically measured using a 670 nm continuous wavelength laser device during the light irradiation (light irradiation dose: 50 mW/cm^2) of the sample.
In addition, in order to confirm the generation of singlet oxygen (SOG), the same method as in Example 2 was performed and analyzed.

[5] = system: PCA-SMC cells; assay: Cell absorption and fluorescence activity, confocal laser microscope; format: cell-based, human; conditions: 2 μM, 4 hours
Method: (§1) Thereafter, the existing medium was replaced with 200 μl of a fresh medium in which 2 μM the conjugate was dissolved, and the cells were cultured for 30 minutes, 1 hour, and 4 hours, respectively.

[6] = Fluorescence recovery by reducing agent (DTT) treatment; conditions: 5 mM DTT; for Increase of fluorescence intensity by DTT treatment: 4 hours, conjugate 2 μM in PBS, λEx 400 nm, λEm 665 nm
Method: The increase of fluorescence and reactive oxygen generation by reducing agent treatment was analyzed.
In the dithiothreitol (DTT) treatment sample, which is a reducing agent, 2 μM of a conjugate was mixed with 2 μM and 5 mM DTT, and the same amount of phosphate-buffered saline (PBS) was added to the buffer-treated group. The fluorescent intensity of the mixed solution (200 μl) was measured at intervals of 30 minutes for 4 hours (λEx. 400 nm, λEm. 665 nm).
Fluorescence recovery of the conjugate thus obtained by the reaction in response to a reducing agent present in a high concentration in cancer cells was performed and analyzed in the same manner as in Example 2. On the other hand, a sample prepared by dilution was put into a multifunctional microplate reader to obtain fluorescence spectrum (λEx. 400 nm, λEm. 620˜850 nm) results.
Meanwhile, in order to analyze the reactivity of the reducing agent/enzyme complex reaction type Ce4-CRRCW conjugate to the reducing agent, the conjugate was treated with reducing agents DTT 2 μM and 5 mM for 6 hours and put into a multifunctional microplate reader to obtain the fluorescence spectrum (λEx. 400 nm, λEm. 620˜850 nm) results. In order to analyze the reactivity to the enzyme, the conjugate was treated with cathepsins B, S, L, and S, or cathepsin B pretreated with cathepsin inhibitor E64 for 6 hours and put into a multifunctional microplate reader to obtain the fluorescence spectrum (λEx. 400 nm, λEm. 620˜850 nm) results. In order to analyze the reducing agent/enzyme complex reaction, 5 mM DTT and cathepsin B enzyme were treated together for 6 hours and put into a multifunctional microplate reader to obtain the fluorescence spectrum (λEx. 400 nm, λEm. 620˜850 nm) results.

[7] = system: HCC70 cells; conditions: 0~10 μM, dark
Method: In the dark state without light, the C-EGFR conjugate of the present invention was treated with 0˜10 μM concentration in HCC70 cells and cytotoxicity was evaluated.

[8] = system: trypsin enzyme; conditions: after 4 hours, 37° C., PBS, λEm 665 nm
Method: 1 nmol of each of Ce4-RRWW and Ce4-RRWWW thus obtained was prepared and dissolved in a PBS solution. The trypsin enzyme was mixed with each […] of each conjugate and fluorescence changes were observed over time at 37° C.

[9] = 2 μM, PBS including 10% FBS, room temperature, 4 hours
Method: The L-EGFR conjugate of the present invention was mixed with PBS including 10% […], fetal bovine serum (FBS, Gibco, USA), respectively, and cultured, and the stability in the serum was evaluated. The final concentration of the conjugate in solution was adjusted to 2 μM. The solution was allowed to react at room temperature for 4 hours and then put in a multifunctional microplate reader (Safire 2, Tecan, Switzerland) to obtain a fluorescence spectrum (λEx. 400 nm) result.
The Ce4-RRW conjugate of the present invention was mixed with PBS including 10% of FBS and cultured to evaluate the stability in serum. The final concentration of the conjugate in solution was adjusted to 2 μM. The solution was allowed to react at room temperature for 4 hours and then put in a multifunctional microplate reader to obtain a fluorescence spectrum (λEx. 610 nm, λEm. 620˜850 nm) result.

[10] = system: KB cells; conditions: 2 μM
Method: KB cells per well were put in a 4-well Lab-Tek chamber per 2×10^5, and were cultured for 24 hours to allow the cells to be absorbed well. Thereafter, the existing medium was replaced with 500 μl of fresh medium in which the Ce4-RRW conjugate (2 μM) was dissolved, and then the cells were cultured for 4 hours.
Finally, the cells were washed three times with the culture medium, and then a near-infrared fluorescence image (λEx. 405 nm, λEm. 625˜754 nm) was obtained using a confocal laser microscope.
Experiments were performed to determine the intracellular location of the Ce4-RRW of the present invention. In the 8-well Lab-Tek chamber, 5×10^4 KB cells were put in each well. The cells were cultured for 24 hours to allow the cells to be absorbed well, and then 2 μM Ce4-RRW was added and cultured for 4 hours, followed by washing three times. Thereafter, after replacing the existing medium with fresh medium including 100 nM LysoTracker Blue DND-22 dye, the cells were cultured for 45 minutes. Fluorescent images of the Ce4-RRW (λEx. 405 nm, λEm. 625˜754 nm) and LysoTracker (λEx. 405 nm, λEm. 411˜497 nm) were obtained for these samples using confocal microscopy.

[11] = system: MDA-MB-231 cells; assay: Cell absorption and fluorescence activity, confocal laser microscope; format: cell-based, human; conditions: 2 μM
Method: as §1

[12] = system: MDA-MB-468 cells; conditions: 0~10 μM, dark
Method: In the dark state without light, the L-EGFR conjugate of the present invention was added to MDA-MB-468 cells at a concentration of 0˜10 μM and cytotoxicity was evaluated.

[13] = system: MDA-MB-468 cells; assay: Cell absorption and fluorescence activity, confocal laser microscope; format: cell-based, human; conditions: 2 μM
Method: as §1
L-EGFR conjugate was treated at a concentration of 2 μM and was cultured for 4 hours, followed by washing three times.

Molecule	Cells alive after photodynamic therapy [1]	Fluorescence image without washing [2]	Increase of singlet oxygen generation [4] [times]	Generation of singlet oxygen in the quenched state [4]	Intracellular fluorescence signal / cell entry [5]	Increase of fluorescence intensity by DTT treatment [6] [times]	Increase of fluorescence versus initial fluorescence after trypsin treatment [8]	Effect of serum protein on fluorescence of the conjugate [9]	also measured
C=Cc1c(C)c2cc3nc(c(C)c4[nH]c(cc5nc(cc1[nH]2)C(C)=C5CC)c(C)c4C(=O)O)[C@@H](CCC(=O)NCCOCCOCC(=O)N[C@H]1CSSC[C@@H](C(=O)N[C@@H](Cc2ccc(O)cc2)C(=O)N[C@@H](Cc2c[nH]cn2)C(=O)N[C@@H](Cc2c[nH]c4ccccc24)C(=O)N[C@@H](Cc2ccc(O)cc2)C(=O)NCC(=O)N[C@@H](Cc2ccc(O)cc2)C(=O)N[C@H](C(=O)N2CCC[C@H]2C(=O)N[C@@H](CCC(N)=O)C(=O)N[C@@H](CC(N)=O)C(=O)N[C@H](C(=O)N[C@H](C(=O)O)[C@@H](C)CC)C(C)C)[C@@H](C)O)NC1=O)[C@@H]3C [C-EGFR]	at least 70%	fluorescence signal generation is inhibited from outside the cell	5	inhibited	fluorescence signals were hardly exhibited	3.4			Intracellular fluorescence signal [3]: strong fluorescence signals; Intracellular location (LysoTracker co-staining) [3]: migrated into the lysosomes; Time to fluorescence recovery after the start of the reaction [6]: ≤ 30 min; Cytotoxicity without light irradiation [7]: did not show cytotoxicity
C=Cc1c(C)c2cc3nc(c(C)c4nc(cc5[nH]c(cc1[nH]2)c(C)c5CC)C(C)=C4C(=O)O)[C@@H](CCC(=O)N[C@@H](CCCNC(=N)N)C(=O)N[C@@H](CCCNC(=N)N)C(=O)N[C@@H](Cc1c[nH]c2ccccc12)C(=O)N[C@@H](Cc1c[nH]c2ccccc12)C(=O)N[C@@H](Cc1c[nH]c2ccccc12)C(=O)O)[C@@H]3C [Ce4-RRWWW] (X1-RRWWW-OH)							4.3 times		
C=Cc1c(C)c2cc3nc(c(C)c4nc(cc5[nH]c(cc1[nH]2)c(C)c5CC)C(C)=C4C(=O)O)[C@@H](CCC(=O)N[C@@H](CCCNC(=N)N)C(=O)N[C@@H](CCCNC(=N)N)C(=O)N[C@@H](Cc1c[nH]c2ccccc12)C(=O)N[C@@H](Cc1c[nH]c2ccccc12)C(=O)O)[C@@H]3C [Ce4-RRWW]							about 1.6 times		
C=Cc1c(C)c2cc3nc(c(C)c4nc(cc5[nH]c(cc1[nH]2)c(C)c5CC)C(C)=C4C(=O)O)[C@@H](CCC(=O)N[C@@H](CCCNC(=N)N)C(=O)N[C@@H](CCCNC(=N)N)C(=O)N[C@@H](Cc1c[nH]c2ccccc12)C(=O)O)[C@@H]3C [Ce4-RRW]								did not affect the fluorescence	Intracellular fluorescence signal [10]: strong fluorescence signal; Intracellular location (LysoTracker co-staining) ([10]; 4 hours): located in the lysosome
C=Cc1c(C)c2cc3nc(c(C)c4[nH]c(cc5nc(cc1[nH]2)C(C)=C5CC)c(C)c4C(=O)O)[C@@H](CCC(=O)NCCOCCOCC(=O)N[C@@H](CSSC[C@H](N)C(=O)N[C@@H](Cc1ccc(O)cc1)C(=O)N[C@@H](Cc1c[nH]cn1)C(=O)N[C@@H](Cc1c[nH]c2ccccc12)C(=O)N[C@@H](Cc1ccc(O)cc1)C(=O)NCC(=O)N[C@@H](Cc1ccc(O)cc1)C(=O)N[C@H](C(=O)N1CCC[C@H]1C(=O)N[C@@H](CCC(N)=O)C(=O)N[C@@H](CC(N)=O)C(=O)N[C@H](C(=O)N[C@H](C(=O)O)[C@@H](C)CC)C(C)C)[C@@H](C)O)C(=O)O)[C@@H]3C [L-EGFR]	at least 70%		2	suppressed	did not enter the cell even after culturing for 4 hours	2.5		did not affect the fluorescence intensity	Intracellular fluorescence signal with culture time ([11]; 30 minutes to 4 hours): fluorescence intensity was increased with increasing culture time; Intracellular fluorescence signal ([11]; first 30 minutes): fluorescence was almost not observed; Fluorescence recovered within 5 minutes after the start of the reaction [6]: at least 90%; Cytotoxicity without light irradiation [12]: did not show cytotoxicity; Fluorescence signal ([13]; 30 minutes): strong fluorescence signal on the cell surface; Intracellular location (LysoTracker co-staining) ([13]; 4 hours): activated in the lysosome
chlorin e4 [free photosensitizer, reference compound]		position of cancer cells cannot be distinguished							
